Measurements published in article PMC6873674, “Inhibition of Plasmodium sporogonic stages by ivermectin and other avermectins” (Parasites & Vectors, 2019).

Legend:
[1] = tested on: P. berghei oocyst formation; experiment: Bioluminescence assay of oocyst formation in vitro (Day0-Day3); format: cell-based, Plasmodium berghei; details: mean
Method: (§1) Purified ookinetes were seeded with Drosophila melanogaster S2 cells (Drosophila Genomics Resource Center, Bloomington, USA) in a 1:10 ratio (10^4 ookinetes and 10^5 S2 cells) in Schneider’s medium (S0146, Sigma-Aldrich) supplemented with 15% FBS, penicillin/streptomycin (50 U/ml, 50 µg/ml) and gentamicin (50 µg/ml) to promote oocyst development. Oocysts were co-cultured with D. melanogaster S2 cells in flat bottom 96-well plates (Corning, New York, USA) for up to 15 days at 19 °C. One-quarter of the medium was changed 3 times per week (every 48 to 72 h), and 10^5 S2 cells were added once per week. In parallel, S2 cells were maintained at 27 °C in Schneider’s medium (S0146, Sigma-Aldrich) supplemented with 10% FBS and penicillin/streptomycin (50 U/ml, 50 µg/ml).
(§2) A bioluminescence assay was used to assess the development of the mosquito stages of PbCSGFP-Luc. In order to evaluate the effect of compounds on the development of the parasite’s mosquito stages, samples were collected at 3 different time points to determine the effect on ookinete and oocyst formation, and oocyst maturation, as previously described. The bioluminescence assay was performed using the Firefly Luciferase Assay Kit (Biotium, Hayward, USA) according to the manufacturer’s instructions, with some modifications. Briefly, the whole well contents were collected and spun down, washed with PBS, frozen in 50 µl of lysis buffer (1:5 ratio) and stored at − 20 °C until further use. Collected samples were lysed and 30 µl of the resulting supernatant were transferred into white 96-well plates. Fifty µl of D-luciferin in Firefly luciferase assay buffer (1:50 ratio) were added to the samples and parasite load was determined by measuring luminescence intensity using a microplate reader (Tecan Infinite M200, Zurich, Switzerland).
(§3) The effect of eprinomectin, abamectin, ivermectin, moxidectin, doramectin and emamectin on the Plasmodium mosquito stages was evaluated as previously described. The compounds were dissolved in dimethyl sulfoxide (DMSO) and the amount of DMSO equivalent to that present in the highest compound concentration was used as a control. The effect of 10 µM of each compound was assessed on ookinetes, and on oocyst development and maturation. Briefly, after 1 h of incubation, the compounds were added to 5 µl of infected blood cultures, and the bioluminescence intensity of the parasites on the ookinete cultures was assessed 24 h later. To assess the effect of the compounds on oocyst development and maturation, compounds were mixed with the mature ookinetes, and parasites collected after 3 days of culture or compounds were added to the oocyst culture after 3 days of culture, and parasites collected 15 days later.
(§4) Compound concentration resulting in 50% inhibition (IC50) for oocyst growth and maturation were estimated for eprinomectin, abamectin, ivermectin, moxidectin, doramectin and emamectin (assayed at 0.05, 0.5, 1, 5, 10, 25 and 50 µM) by nonlinear regression analysis.

[2] = tested on: P. berghei oocyst growth/maturation; experiment: Bioluminescence assay of oocyst growth/maturation in vitro (Day3-Day15); format: cell-based, Plasmodium berghei; details: mean
Method: as §1, §2, §3, §4

[3] = tested on: P. berghei ookinete formation; experiment: Bioluminescence assay of ookinete formation in vitro; format: cell-based, Plasmodium berghei; details: 10 µM, 24 h
Method: Plasmodium berghei ANKA expressing green fluorescent protein (GFP) and luciferase under the control of the circumsporozoite protein (CSP) promoter (line 784cl1, RMgm-152, PbCSPGFP-Luc) was maintained in Anopheles stephensi mosquitoes and BALB/cByJ mice. To maintain gametocyte infectivity, only up to six passages of parasites from infected to naïve mice were performed. Ookinete in vitro production was performed as previously described. Briefly, BALB/cByJ mice were treated with 0.1 ml phenylhydrazine (25 mg/ml) 3 days prior to infection with 10^7 P. berghei-infected red blood cells (iRBC) obtained from a donor mouse. On the third day after infection, gametocytemia was monitored by light microscopy for the presence of exflagellating gametocytes in ookinete medium (1:4 dilution). […]
A bioluminescence assay was used to assess the development of the mosquito stages of PbCSGFP-Luc. […] Fifty µl of D-luciferin in Firefly luciferase assay buffer (1:50 ratio) were added to the samples and parasite load was determined by measuring luminescence intensity using a microplate reader (Tecan Infinite M200, Zurich, Switzerland).
The effect of eprinomectin, abamectin, ivermectin, moxidectin, doramectin and emamectin on the Plasmodium mosquito stages was evaluated as previously described. […] The effect of 10 µM of each compound was assessed on ookinetes, and on oocyst development and maturation. […]

[4] = tested on: Drosophila melanogaster S2 cells; experiment: AlamarBlue in vitro cytotoxicity assay; format: cell-based; details: 10 µM, up to 7 days
Method: Compounds were screened for their in vitro cytotoxicity against D. melanogaster S2 cells, using the AlamarBlue® assay (Invitrogen, Carlsbad, USA). This assay allows to measure metabolic activity based on a fluoremetric/colorimetric indicator [28]. To assess the effect of the compounds on cell development, Drosophila melanogaster S2 cells were seeded in a 1:10 ratio (10^5 S2 cells) in Schneider’s medium (S0146, Sigma-Aldrich) supplemented with 15% FBS, penicillin/streptomycin (50 U/ml, 50 µg/ml) and gentamicin (50 µg/ml). All the above-mentioned compounds were added to the S2 cell cultures to a final concentration of 10 µM and the amount of DMSO equivalent to that present in the highest compound concentration was used as a control. Cultures were maintained for 7 days and one-quarter of the medium was changed 3 times per week every 48 to 72 h. Samples were collected every day by removing 120 µl of medium and adding 80 µl of AlamarBlue previously diluted in Schneider’s medium (1:10 dilution) to each well. The suspension was transferred to a 96 well flat bottom plate and incubated for one and a half hours at 37 °C. Fluorescence intensity was then measured using a microplate reader (Tecan Infinite M200) at 530 nm excitation wavelength/590 nm emission wavelength to determine cell viability.

[5] = tested on: P. berghei asexual and sexual blood stages; experiment: In vivo activity of ivermectin against P. berghei blood stages in infected mice (flow cytometry, microscopy); design: species or system Plasmodium berghei (BALB/cByJ mice); details: single oral gavage 5 mg/kg, up to 5 days after infection
Source text: Male BALB/cByJ mice (6–8 weeks-old) purchased from Charles River Laboratories Inc. (Lyon, France) were used. Two parasite lines were employed in the experimental work, a transgenic parasite line termed PbCSGFP-Luc (RMgm-152),which expresses the fusion gene gfp-luc under the control of the csp promotor (PBANKA_0403200) integrated into the silent 230p gene locus (PBANKA_0306000), and the transgenic parasite line PbFluo-frmg (RMgm-164), which expresses GFP under control of the ‘male gametocyte-specific’ promoter of PB000791.03.0 (dynein heavy chain, putative) and RFP under the control of the ‘female gametocyte-specific’ promoter PB000504.02.0 (LCCL domain-containing protein CCP2). The rfp and gfp genes are integrated into the genome in the 230p locus (PBANKA_0306000).
In order to assess the in vivo activity of Iv, five BALB/cByJ (Charles River) mice per experimental group were infected by intraperitoneal injection of 10^7 P. berghei Fluo-frmg-infected red blood cells. Parasitaemia and gametocyteamia were measured the following days by flow cytometry analysis of 4 µl of tail blood. Blood was collected in 200 µl of PBS and 100 µl stored at 4 °C, while the remaining was transferred to 100 µl of PBS containing […] of red fluorescent nucleic acid stain Syto®61 (Thermo Fisher Scientific, Waltham, USA) and incubated for 20 min at room temperature in the dark. The samples were analysed on a LSRFortessa X-20 flow cytometer (Becton, Dickinson and Co., New Jersey, USA). Female and male gametocytes were gated based on the analysis of GFP and Red Fluorescence Protein (RFP) fluorescence, and parasitemia was estimated based on the analysis of Syto®61 and forward scatter. The positive cell population was determined by comparison of infected blood samples with an uninfected blood sample. Results were then analysed with the FlowJo^TM Software (Version 10, FlowJo^TM Software, Ashland, USA). Exflagellation was also monitored every day, until parasitemia reached 3% by microscopy analysis. To this end, 2.5 µl of tail blood were collected and mounted on a glass slide, and 8 min later the number of exflagellation events present in 4 independent fields of vision at 40× were determined. When parasitemia reached up to 3%, either DMSO or ivermectin were administered by oral gavage, at a concentration of 5 mg/kg, to five mice of each experimental group. Parasitemia, gametocytemia and exflagellation were monitored for 3 days after treatment, following which the mice were euthanized, and the experiment was terminated.

Row | Molecule | IC50 [1] [µM] | IC50 [2] [µM] | inhibition of ookinete formation (transformation of gametes/zygote into ookinetes) [3] | other results
1 | CO[C@H]1C[C@H](O[C@H]2[C@H](C)O[C@@H](O[C@@H]3/C(C)=C/C[C@@H]4C[C@@H](C[C@]5(C=C[C@H](C)[C@@H](C6CCCCC6)O5)O4)OC(=O)[C@@H]4C=C(C)[C@@H](O)[C@H]5OC/C(=C\C=C\[C@@H]3C)[C@]54O)C[C@@H]2OC)O[C@@H](C)[C@@H]1O [Doramectin, doramectin] | 7.08 | 4.32 | – | –
2 | CO/N=C1\C[C@]2(C[C@@H]3C[C@@H](C/C=C(\C)C[C@@H](C)/C=C/C=C4\CO[C@@H]5[C@H](O)C(C)=C[C@@H](C(=O)O3)[C@]45O)O2)O[C@H](/C(C)=C/C(C)C)[C@H]1C [Moxidectin, moxidectin] | – | – | – | IC50 ([1]; Plasmodium berghei): 10.8 µM; IC50 ([2]; Plasmodium berghei): 5.49 µM
3 | abamectin | 8.77 | 7.93 | – | –
4 | emamectin | 7.31 | 7.36 | approximately 47% | cytotoxicity against S2 cells (cell viability) [4]: displays some cytotoxicity
5 | eprinomectin | 5.7 | 4.59 | – | –
6 | ivermectin | 11.6 | 9.32 | very small and non-significant impact | exflagellation events vs untreated controls [5]: no statistically significant differences; female gametocytemia vs untreated controls [5]: no statistically significant differences; male gametocytemia vs untreated controls [5]: no statistically significant differences; overall parasitemia vs untreated controls [5]: no statistically significant differences
